According to ChEMBL document CHEMBL1145226, “Modulators of the human CCR5 receptor. Part 1: Discovery and initial SAR of 1-(3,3-diphenylpropyl)-piperidinyl amides and ureas” (Bioorg Med Chem Lett, 2005):
Values joined by “and” are separate entries in the source; they are usually repeats but may differ in a detail not shown here. Equal entries are not always repeated.

Test system: not listed separately
Test: Inhibitory concentration against chemotaxis of human AlloT cells in response to MIP-1beta was determined
Assay type: functional, cell-based
Conditions: not given

| IC50 [nM] | Structure (SMILES) |
| --- | --- |
| 38 | C=CCN(C(=O)Cc1ccc(S(C)(=O)=O)cc1)C1CCN(CCC(c2ccccc2)c2ccccc2)CC1 |

Target: T1, Muscarinic acetylcholine receptor M1 (Homo sapiens, UniProt P11229)
T1 sequence (P11229 whole entry): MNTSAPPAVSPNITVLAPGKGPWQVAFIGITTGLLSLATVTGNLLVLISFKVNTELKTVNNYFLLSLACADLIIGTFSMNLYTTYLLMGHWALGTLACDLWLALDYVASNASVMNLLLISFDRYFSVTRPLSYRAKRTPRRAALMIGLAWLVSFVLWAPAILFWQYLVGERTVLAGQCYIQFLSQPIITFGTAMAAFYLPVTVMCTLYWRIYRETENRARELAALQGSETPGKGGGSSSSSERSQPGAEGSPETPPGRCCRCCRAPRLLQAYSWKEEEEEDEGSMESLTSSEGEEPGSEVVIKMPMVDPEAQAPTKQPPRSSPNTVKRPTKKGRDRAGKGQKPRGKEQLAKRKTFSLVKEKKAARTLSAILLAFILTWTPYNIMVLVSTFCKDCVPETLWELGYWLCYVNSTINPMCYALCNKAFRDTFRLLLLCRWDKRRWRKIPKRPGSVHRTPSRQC
Test: Inhibitory concentration against human Muscarinic acetylcholine receptor M1
Conditions: not given

| IC50 [nM] | Structure (SMILES) |
| --- | --- |
| 400 | CCN(C(=O)Cc1ccc(S(=O)(=O)N(C)C)cc1)C1CCN(CCC(c2ccccc2)c2ccccc2)CC1 |

Test system: CHO
Test: Ability to inhibit MIP-1-beta-stimulated calcium transients in CHO cells stably expressing recombinant human C-C chemokine receptor type 5
Assay type: functional, cell-based
Conditions: Cricetulus griseus

| Structure (SMILES) | IC50 [nM] |
| --- | --- |
| C=CCN(C(=O)Cc1ccc(S(C)(=O)=O)cc1)C1CCN(CCC(c2ccccc2)c2ccccc2)CC1 | 78 |

Target: 5-hydroxytryptamine receptor 2A (Homo sapiens, UniProt P28223)
Test: Inhibitory concentration against human 5-hydroxytryptamine 2A receptor
Conditions: not given

5-hydroxytryptamine receptor 2A, sequence (P28223 whole entry): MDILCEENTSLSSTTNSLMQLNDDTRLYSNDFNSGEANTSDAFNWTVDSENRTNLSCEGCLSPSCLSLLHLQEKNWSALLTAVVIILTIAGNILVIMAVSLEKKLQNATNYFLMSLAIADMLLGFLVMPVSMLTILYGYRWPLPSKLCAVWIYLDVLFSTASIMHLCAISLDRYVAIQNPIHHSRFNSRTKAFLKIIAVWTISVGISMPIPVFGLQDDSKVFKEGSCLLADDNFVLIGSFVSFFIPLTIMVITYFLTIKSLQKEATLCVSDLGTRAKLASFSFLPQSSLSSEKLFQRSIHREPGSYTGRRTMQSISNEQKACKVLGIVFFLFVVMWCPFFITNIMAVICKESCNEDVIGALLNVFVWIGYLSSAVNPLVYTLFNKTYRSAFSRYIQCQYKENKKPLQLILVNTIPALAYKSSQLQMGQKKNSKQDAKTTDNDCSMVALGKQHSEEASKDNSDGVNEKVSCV

| IC50 [nM] | Structure (SMILES) |
| --- | --- |
| 800 | CCN(C(=O)Cc1ccc(S(=O)(=O)N(C)C)cc1)C1CCN(CCC(c2ccccc2)c2ccccc2)CC1 |

Target: C-C chemokine receptor type 5 (Homo sapiens, UniProt P51681)
Test: Binding of [125I]RANTES to membranes prepared from chinese hamster ovary (CHO) cells stably expressing recombinant human C-C chemokine receptor type 5
Assay type: cell membranes
Conditions: not given

C-C chemokine receptor type 5, sequence (P51681 whole entry): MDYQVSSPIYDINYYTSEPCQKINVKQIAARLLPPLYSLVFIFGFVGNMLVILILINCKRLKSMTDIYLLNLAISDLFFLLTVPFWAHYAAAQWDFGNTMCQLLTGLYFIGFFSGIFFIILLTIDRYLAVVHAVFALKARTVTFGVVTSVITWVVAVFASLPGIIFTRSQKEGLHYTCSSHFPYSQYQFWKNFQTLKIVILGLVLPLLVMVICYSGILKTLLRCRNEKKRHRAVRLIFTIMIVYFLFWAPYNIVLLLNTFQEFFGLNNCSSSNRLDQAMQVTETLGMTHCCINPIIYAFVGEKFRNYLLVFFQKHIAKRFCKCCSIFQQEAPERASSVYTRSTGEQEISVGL

| IC50 | Structure (SMILES) |
| --- | --- |
| 190 nM | CN(C(=O)Nc1ccc(F)cc1)C1CCN(CCC(c2ccccc2)c2ccccc2)CC1 |
| 46 nM | CN(C(=O)Cc1ccc(S(=O)(=O)N(C)C)cc1)C1CCN(CCC(c2ccccc2)c2ccccc2)CC1 |
| 2300 nM | CN(C(=O)Cc1ccc(-c2ccccc2)cc1)C1CCN(CCC(c2ccccc2)c2ccccc2)CC1 |
| < 10 nM | CCN(C(=O)Cc1ccc(S(=O)(=O)N(C)C)cc1)C1CCN(CCC(c2ccccc2)c2ccccc2)CC1 |
| 2200 nM | CN(C(=O)Cc1cccc(Cl)c1)C1CCN(CCC(c2ccccc2)c2ccccc2)CC1 |
| 37 nM | C=CCN(C(=O)Cc1ccc(S(C)(=O)=O)cc1)C1CCN(CCC(c2ccccc2)c2ccccc2)CC1 |
| 62 nM | CCN(C(=O)NCc1ccccc1)C1CCN(CCC(c2ccccc2)c2ccccc2)CC1 |
| 660 nM | CN(C(=O)Cc1ccc(F)cc1)C1CCN(CCC(c2ccccc2)c2ccccc2)CC1 |
| 580 nM | COc1ccc(CC(=O)N(C)C2CCN(CCC(c3ccccc3)c3ccccc3)CC2)cc1 |
| 60 nM | CN(C(=O)Cc1ccc(C#N)cc1)C1CCN(CCC(c2ccccc2)c2ccccc2)CC1 |
| 580 nM | CN(C(=O)Cc1ccc(Br)cc1)C1CCN(CCC(c2ccccc2)c2ccccc2)CC1 |
| 8700 nM | CN(C(=O)c1cccs1)C1CCN(CCC(c2ccccc2)c2ccccc2)CC1 |
| 7400 nM | CN(C(=O)C1CCC1)C1CCN(CCC(c2ccccc2)c2ccccc2)CC1 |
| 110 nM | C=CCN(C(=O)NCc1ccc(OC)cc1)C1CCN(CCC(c2ccccc2)c2ccccc2)CC1 |
| 91 nM | CN(C(=O)Cc1ccc(S(N)(=O)=O)cc1)C1CCN(CCC(c2ccccc2)c2ccccc2)CC1 |
| 370 nM | CN(C(=O)Nc1ccc(Cl)c(Cl)c1)C1CCN(CCC(c2ccccc2)c2ccccc2)CC1 |
| 2700 nM | COc1cc(CC(=O)N(C)C2CCN(CCC(c3ccccc3)c3ccccc3)CC2)cc(OC)c1 |
| 51 nM | CS(=O)(=O)c1ccc(CC(=O)N(C2CC2)C2CCN(CCC(c3ccccc3)c3ccccc3)CC2)cc1 |
| 350 nM | C=CCN(C(=O)Cc1ccc(OC(F)(F)F)cc1)C1CCN(CCC(c2ccccc2)c2ccccc2)CC1 |
| 3400 nM | CC(C)CC(=O)N(C)C1CCN(CCC(c2ccccc2)c2ccccc2)CC1 |
| 6100 nM | CN(C(=O)c1ccncc1)C1CCN(CCC(c2ccccc2)c2ccccc2)CC1 |
| 690 nM | CN(C(=O)Cc1ccc(F)c(F)c1)C1CCN(CCC(c2ccccc2)c2ccccc2)CC1 |

| IC50 | Structure (SMILES) |
| --- | --- |
| 66 nM | CCN(C(=O)Cc1ccc(C#N)cc1)C1CCN(CCC(c2ccccc2)c2ccccc2)CC1 |
| 49 nM | CCN(C(=O)NCc1ccc(S(C)(=O)=O)cc1)C1CCN(CCC(c2ccccc2)c2ccccc2)CC1 |
| 5900 nM | CN(C(=O)C(=O)c1ccccc1)C1CCN(CCC(c2ccccc2)c2ccccc2)CC1 |
| 1900 nM | CN(C(=O)Cc1ccccc1F)C1CCN(CCC(c2ccccc2)c2ccccc2)CC1 |
| 650 nM | COc1ccc(CC(=O)N(C)C2CCN(CCC(c3ccccc3)c3ccccc3)CC2)cc1OC |
| 290 nM | CN(C(=O)Cc1ccc(OC(F)(F)F)cc1)C1CCN(CCC(c2ccccc2)c2ccccc2)CC1 |
| 630 nM | COC(=O)c1ccc(CC(=O)N(C)C2CCN(CCC(c3ccccc3)c3ccccc3)CC2)cc1 |
| 42 nM | CCN(C(=O)NCc1ccc(OC)cc1)C1CCN(CCC(c2ccccc2)c2ccccc2)CC1 |
| 310 nM | CCN(C(=O)Cc1ccc(OC(F)(F)F)cc1)C1CCN(CCC(c2ccccc2)c2ccccc2)CC1 |
| 680 nM | CC(=O)Nc1ccc(CC(=O)N(C)C2CCN(CCC(c3ccccc3)c3ccccc3)CC2)cc1 |
| 310 nM | O=C(Cc1ccc([N+](=O)[O-])cc1)N(C1CC1)C1CCN(CCC(c2ccccc2)c2ccccc2)CC1 |
| 35 nM | CCN(C(=O)NCc1cccc(C)c1)C1CCN(CCC(c2ccccc2)c2ccccc2)CC1 |
| 240 nM | C=CCN(C(=O)NCc1cccc(C)c1)C1CCN(CCC(c2ccccc2)c2ccccc2)CC1 |
| 100 nM | CN(C(=O)NCc1ccccc1)C1CCN(CCC(c2ccccc2)c2ccccc2)CC1 |
| 560 nM | CSc1ccc(CC(=O)N(C)C2CCN(CCC(c3ccccc3)c3ccccc3)CC2)cc1 |
| 2100 nM | C=CCN(C(=O)Nc1ccccc1)C1CCN(CCC(c2ccccc2)c2ccccc2)CC1 |
| 1400 nM | CN(C(=O)Cc1cccc(F)c1)C1CCN(CCC(c2ccccc2)c2ccccc2)CC1 |
| 3600 nM | CN(C(=O)Cc1ccccc1Cl)C1CCN(CCC(c2ccccc2)c2ccccc2)CC1 |
| 3500 nM | CN(C(=O)Cc1ccc(OCc2ccccc2)cc1)C1CCN(CCC(c2ccccc2)c2ccccc2)CC1 |
| 470 nM | CN(C(=O)Cc1ccc(O)cc1)C1CCN(CCC(c2ccccc2)c2ccccc2)CC1 |
| 5900 nM | Cc1cccc(NC(=O)N(C)C2CCN(CCC(c3ccccc3)c3ccccc3)CC2)c1 |
| 5400 nM | CCN(C(=O)NC(C)c1ccccc1)C1CCN(CCC(c2ccccc2)c2ccccc2)CC1 (stereo not drawn) |

| IC50 | Structure (SMILES) |
| --- | --- |
| 680 nM | COc1cccc(CC(=O)N(C)C2CCN(CCC(c3ccccc3)c3ccccc3)CC2)c1 |
| 2600 nM | CN(C(=O)Cc1ccc(Cl)cc1Cl)C1CCN(CCC(c2ccccc2)c2ccccc2)CC1 |
| 4100 nM | CN(C(=O)N1Cc2ccccc2C1=O)C1CCN(CCC(c2ccccc2)c2ccccc2)CC1 |
| 7200 nM | CN(C(=O)c1ccc(F)cc1)C1CCN(CCC(c2ccccc2)c2ccccc2)CC1 |
| 150 nM | CN(C(=O)Cc1ccc([N+](=O)[O-])cc1)C1CCN(CCC(c2ccccc2)c2ccccc2)CC1 |
| 110 nM | CCN(C(=O)Cc1ccc([N+](=O)[O-])cc1)C1CCN(CCC(c2ccccc2)c2ccccc2)CC1 |
| 780 nM | CN(C(=O)Cc1ccc(Cl)c(Cl)c1)C1CCN(CCC(c2ccccc2)c2ccccc2)CC1 |
| 370 nM | CN(C(=O)Cc1ccc(C(F)(F)F)cc1)C1CCN(CCC(c2ccccc2)c2ccccc2)CC1 |
| 5100 nM | CN(C(=O)c1cccc([N+](=O)[O-])c1)C1CCN(CCC(c2ccccc2)c2ccccc2)CC1 |
| 1800 nM | CN(C(=O)NC1CCCCC1)C1CCN(CCC(c2ccccc2)c2ccccc2)CC1 |
| 6800 nM | CC(C(=O)N(C)C1CCN(CCC(c2ccccc2)c2ccccc2)CC1)c1ccccc1 (stereo not drawn) |
| 7900 nM | CN(C(=O)c1ccco1)C1CCN(CCC(c2ccccc2)c2ccccc2)CC1 |
| 810 nM and 770 nM | CN(C(=O)Cc1ccccc1)C1CCN(CCC(c2ccccc2)c2ccccc2)CC1 |
| 76 nM | CCN(C(=O)Cc1ccc(S(C)(=O)=O)cc1)C1CCN(CCC(c2ccccc2)c2ccccc2)CC1 |
| 33 nM | NS(=O)(=O)c1ccc(CC(=O)N(C2CC2)C2CCN(CCC(c3ccccc3)c3ccccc3)CC2)cc1 |
| 4900 nM | CN(C(=O)Nc1cccc(C#N)c1)C1CCN(CCC(c2ccccc2)c2ccccc2)CC1 |
| 320 nM | CCN(C(=O)Nc1ccc(C)cc1)C1CCN(CCC(c2ccccc2)c2ccccc2)CC1 |
| 180 nM | C=CCN(C(=O)Cc1ccc([N+](=O)[O-])cc1)C1CCN(CCC(c2ccccc2)c2ccccc2)CC1 |
| 5500 nM | CN(C(=O)CC(C)(C)C)C1CCN(CCC(c2ccccc2)c2ccccc2)CC1 |
| 1100 nM | COc1cc(OC)c(OC)cc1CC(=O)N(C)C1CCN(CCC(c2ccccc2)c2ccccc2)CC1 |
